Among the data in publication PMC10438916 (Results in chemistry, 2022) are IC50 and Solubility values, retold here.

In one data set the target is T1, human sEH (Homo sapiens, UniProt P34913).
T1 sequence (P34913 1-555): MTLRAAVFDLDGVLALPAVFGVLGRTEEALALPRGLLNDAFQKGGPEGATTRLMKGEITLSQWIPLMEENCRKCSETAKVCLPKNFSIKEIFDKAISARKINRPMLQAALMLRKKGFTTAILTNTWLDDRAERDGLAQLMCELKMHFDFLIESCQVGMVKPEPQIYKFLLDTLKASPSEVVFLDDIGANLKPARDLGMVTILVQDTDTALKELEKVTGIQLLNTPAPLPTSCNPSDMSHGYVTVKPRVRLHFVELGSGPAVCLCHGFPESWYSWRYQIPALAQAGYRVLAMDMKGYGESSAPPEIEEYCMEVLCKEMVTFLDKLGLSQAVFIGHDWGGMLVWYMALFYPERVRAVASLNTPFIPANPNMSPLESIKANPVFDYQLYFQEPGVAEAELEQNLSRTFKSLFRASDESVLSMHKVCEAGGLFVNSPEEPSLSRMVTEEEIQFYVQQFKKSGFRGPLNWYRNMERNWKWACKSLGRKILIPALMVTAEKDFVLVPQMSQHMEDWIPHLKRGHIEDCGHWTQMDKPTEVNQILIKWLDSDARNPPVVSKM
The experiment in a line: Determination of inhibitory potency. Format: biochemical. Conditions: read-out: Human sEH IC50; recombinant affinity purified human sEH, means of three separate experiments.

Data set [1] can be described thus: Solubility by turbidimetric assay in sodium phosphate buffer. Format: physicochemical. Conditions: sodium phosphate buffer pH 7.4, 0.1 M, 1% DMSO.

Converted amounts (≈) assume the structure as drawn.

For orientation: IC50 means the concentration at which inhibition is half-maximal. Usually Solubility stands for the concentration that dissolves in the medium under given conditions. Lower therefore signals little dissolved substance.

Consider `CC1(C)C2CCC1(C)C(NC(=O)Nc1ccc(F)cc1)C2` [Compound L-3b, L-1-(4-fluorophenyl)-3-(1,7,7-trimethylbicyclo[2.2.1]heptan-2-yl)urea], for which, at human sEH, the IC50 amounted to 4 nM. This compound yielded a Solubility in data set [1] of 65 ± 15 µM (≈ 18.9 µg/mL).

With `CC12CCC(C1)C(C)(C)C2NC(=O)Nc1cccc(Cl)c1` [Compound D-6d, D-1-(3-chlorophenyl)-3-(1,3,3-trimethylbicyclo[2.2.1]heptan-2-yl)urea], the half-inhibitory concentration (IC50) at human sEH turned out to be 111 nM. Also, the Solubility in data set [1] stood at 40 ± 10 µM (≈ 12.3 µg/mL).

`CC1(C)C2CCC1(C)C(NC(=O)Nc1ccc(F)cc1)C2` (racemic) [L/D-3b, rac-1-(4-fluorophenyl)-3-(1,7,7-trimethylbicyclo[2.2.1]heptan-2-yl)urea]: the IC50 at human sEH was found to be 5.1 nM. Besides, the Solubility in data set [1] is 65 ± 15 µM (≈ 18.9 µg/mL).

For the compound `CC1(C)C2CCC1(C)C(NC(=O)Nc1cccc(F)c1)C2` [Compound L-3a, L-1-(3-fluorophenyl)-3-(1,7,7-trimethylbicyclo[2.2.1]heptan-2-yl)urea], the concentration for half-maximal inhibition (IC50) on human sEH stood at 0.7 nM. Also, in data set [1], the Solubility is 50 ± 10 µM (≈ 14.5 µg/mL).

As to `CC1(C)C2CCC1(C)C(NC(=O)Nc1cccc(F)c1)C2` (racemic) [L/D-3a, rac-1-(3-fluorophenyl)-3-(1,7,7-trimethylbicyclo[2.2.1]heptan-2-yl)urea], at human sEH, the IC50 is 1.5 nM. For the same compound, the Solubility in data set [1] is 50 ± 10 µM (≈ 14.5 µg/mL).

For `CC12CCC(C1)C(C)(C)C2NC(=O)Nc1cccc(F)c1` [Compound L-6a, L-1-(3-fluorophenyl)-3-(1,3,3-trimethylbicyclo[2.2.1]heptan-2-yl)urea], at human sEH, the IC50 came to 221 nM. Moreover, the Solubility in data set [1] stood at 45 ± 10 µM (≈ 13.1 µg/mL).

Turning to `CC1(C)C2CCC1(C)C(NC(=S)Nc1ccc(F)cc1)C2` (racemic) [L/D-3f, rac-1-(4-fluorophenyl)-3-(1,7,7-trimethylbicyclo[2.2.1]heptan-2-yl)thiourea], the IC50 on human sEH turned out to be 33.5 nM. This compound also had a Solubility in data set [1] of 15 ± 5 µM (≈ 4.6 µg/mL).

As to `CC12CCC(C1)C(C)(C)C2NC(=O)Nc1cccc(F)c1` [Compound D-6a, D-1-(3-fluorophenyl)-3-(1,3,3-trimethylbicyclo[2.2.1]heptan-2-yl)urea], the IC50 on human sEH was determined as 230 nM. In data set [1], the Solubility was found to be 45 ± 10 µM (≈ 13.1 µg/mL).

As to `CC1(C)C2CCC1(C)C(NC(=O)Nc1ccccc1Cl)C2` (racemic) [L/D-3c, rac-1-(2-chlorophenyl)-3-(1,7,7-trimethylbicyclo[2.2.1]heptan-2-yl)urea], on human sEH, the 50% inhibitory concentration (IC50) was determined as 85 nM. For the same compound, in data set [1], the Solubility amounted to 30 ± 10 µM (≈ 9.21 µg/mL).

Consider `CC1(C)C2CCC1(C)C(NC(=O)Nc1ccccc1Cl)C2` [Compound D-3c, D-1-(2-chlorophenyl)-3-(1,7,7-trimethylbicyclo[2.2.1]heptan-2-yl)urea], for which the 50% inhibitory concentration (IC50) at human sEH was determined as 69.6 nM. Further, in data set [1], the Solubility came out at 30 ± 10 µM (≈ 9.21 µg/mL).

For `CC12CCC(C1)C(C)(C)C2NC(=O)Nc1ccc(F)cc1` [Compound L-6b, L-1-(4-fluorophenyl)-3-(1,3,3-trimethylbicyclo[2.2.1]heptan-2-yl)urea], the IC50 at human sEH came out at 412 nM. Besides, the Solubility in data set [1] was determined as 65 ± 15 µM (≈ 18.9 µg/mL).

Regarding `CC1(C)C2CCC1(C)C(NC(=S)Nc1ccc(F)cc1)C2` [Compound L-3f, L-1-(4-fluorophenyl)-3-(1,7,7-trimethylbicyclo[2.2.1]heptan-2-yl)thiourea], at human sEH, the IC50 worked out at 31 nM. In addition, the Solubility in data set [1] worked out at 15 ± 5 µM (≈ 4.6 µg/mL).

As for `CC12CCC(C1)C(C)(C)C2NC(=S)Nc1cccc(F)c1` [Compound D-6e, D-1-(3-fluorophenyl)-3-(1,3,3-trimethylbicyclo[2.2.1]heptan-2-yl)thiourea], on human sEH, the IC50 came to 6480 nM. In data set [1], this compound came in with a Solubility of 10 ± 5 µM (≈ 3.06 µg/mL).

For `CC1(C)C2CCC1(C)C(NC(=S)Nc1cccc(F)c1)C2` (racemic) [L/D-3e, rac-1-(3-fluorophenyl)-3-(1,7,7-trimethylbicyclo[2.2.1]heptan-2-yl)thiourea], at human sEH, the concentration for half-maximal inhibition (IC50) was 126 nM. This compound also had a Solubility in data set [1] of 10 ± 5 µM (≈ 3.06 µg/mL).

For `CC12CCC(C1)C(C)(C)C2NC(=O)Nc1cccc(Cl)c1` [Compound L-6d, L-1-(3-chlorophenyl)-3-(1,3,3-trimethylbicyclo[2.2.1]heptan-2-yl)urea], on human sEH, the IC50 was determined as 166 nM. In data set [1], this compound yielded a Solubility of 40 ± 10 µM (≈ 12.3 µg/mL).

Turning to `CC12CCC(C1)C(C)(C)C2NC(=S)Nc1ccc(F)cc1` [Compound D-6f, D-1-(4-fluorophenyl)-3-(1,3,3-trimethylbicyclo[2.2.1]heptan-2-yl)thiourea], the IC50 on human sEH came out at 6080 nM. This compound yielded a Solubility in data set [1] of 15 ± 5 µM (≈ 4.6 µg/mL).

Consider `CC12CCC(C1)C(C)(C)C2NC(=O)Nc1ccc(F)cc1` [Compound D-6b, D-1-(4-fluorophenyl)-3-(1,3,3-trimethylbicyclo[2.2.1]heptan-2-yl)urea], for which the IC50 at human sEH was determined as 367 nM. In addition, in data set [1], the Solubility amounted to 65 ± 15 µM (≈ 18.9 µg/mL).

With `CC12CCC(C1)C(C)(C)C2NC(=S)Nc1cccc(F)c1` [Compound L-6e, L-1-(3-fluorophenyl)-3-(1,3,3-trimethylbicyclo[2.2.1]heptan-2-yl)thiourea], at human sEH, the IC50 is 2980 nM. Besides, the Solubility in data set [1] amounted to 10 ± 5 µM (≈ 3.06 µg/mL).

Consider `CC1(C)C2CCC1(C)C(NC(=O)Nc1cccc(Cl)c1)C2` [Compound L-3d, L-1-(3-chlorophenyl)-3-(1,7,7-trimethylbicyclo[2.2.1]heptan-2-yl)urea], for which, on human sEH, the IC50 came out at 1.5 nM. Besides, the Solubility in data set [1] is 35 ± 15 µM (≈ 10.7 µg/mL).

With `CC12CCC(C1)C(C)(C)C2NC(=O)Nc1ccccc1Cl` [Compound D-6c, D-1-(2-chlorophenyl)-3-(1,3,3-trimethylbicyclo[2.2.1]heptan-2-yl)urea], at human sEH, the IC50 is 4810 nM. This compound returned a Solubility in data set [1] of 40 ± 10 µM (≈ 12.3 µg/mL).

Regarding `CC12CCC(C1)C(C)(C)C2NC(=S)Nc1ccc(F)cc1` [Compound L-6f, L-1-(4-fluorophenyl)-3-(1,3,3-trimethylbicyclo[2.2.1]heptan-2-yl)thiourea], the IC50 at human sEH was 4230 nM. In data set [1], this compound yielded a Solubility of 15 ± 5 µM (≈ 4.6 µg/mL).

`CC1(C)C2CCC1(C)C(NC(=S)Nc1cccc(F)c1)C2` [Compound L-3e, L-1-(3-fluorophenyl)-3-(1,7,7-trimethylbicyclo[2.2.1]heptan-2-yl)thiourea]: the 50% inhibitory concentration (IC50) at human sEH was found to be 56.1 nM. In addition, the Solubility in data set [1] was 10 ± 5 µM (≈ 3.06 µg/mL).

Turning to `CC1(C)C2CCC1(C)C(NC(=O)Nc1ccccc1Cl)C2` [Compound L-3c, L-1-(2-chlorophenyl)-3-(1,7,7-trimethylbicyclo[2.2.1]heptan-2-yl)urea], on human sEH, the half-maximal inhibitory concentration (IC50) was determined as 387 nM. In data set [1], the Solubility came to 30 ± 10 µM (≈ 9.21 µg/mL).

On to `CC1(C)C2CCC1(C)C(NC(=O)Nc1cccc(Cl)c1)C2` (racemic) [L/D-3d, rac-1-(3-chlorophenyl)-3-(1,7,7-trimethylbicyclo[2.2.1]heptan-2-yl)urea], for which the IC50 on human sEH turned out to be 1.6 nM. The same compound yielded a Solubility in data set [1] of 35 ± 15 µM (≈ 10.7 µg/mL).

Consider `CC12CCC(C1)C(C)(C)C2NC(=O)Nc1ccccc1Cl` [Compound L-6c, L-1-(2-chlorophenyl)-3-(1,3,3-trimethylbicyclo[2.2.1]heptan-2-yl)urea], for which the IC50 at human sEH amounted to 1470 nM. Moreover, the Solubility in data set [1] was 40 ± 10 µM (≈ 12.3 µg/mL).

Consider `CC1(C)C2CCC1(C)C(NC(=O)Nc1cccc(Cl)c1)C2` [Compound D-3d, D-1-(3-chlorophenyl)-3-(1,7,7-trimethylbicyclo[2.2.1]heptan-2-yl)urea], for which the IC50 at human sEH is 1.7 nM. In data set [1], this compound yielded a Solubility of 35 ± 15 µM (≈ 10.7 µg/mL).

Turning to `CC1(C)C2CCC1(C)C(NC(=O)Nc1cccc(F)c1)C2` [Compound D-3a, D-1-(3-fluorophenyl)-3-(1,7,7-trimethylbicyclo[2.2.1]heptan-2-yl)urea], on human sEH, the IC50 was determined as 2.8 nM. For the same compound, the Solubility in data set [1] turned out to be 50 ± 10 µM (≈ 14.5 µg/mL).

`CC1(C)C2CCC1(C)C(NC(=S)Nc1cccc(F)c1)C2` [Compound D-3e, D-1-(3-fluorophenyl)-3-(1,7,7-trimethylbicyclo[2.2.1]heptan-2-yl)thiourea]: the IC50 on human sEH came to 176 nM. The same compound returned a Solubility in data set [1] of 10 ± 5 µM (≈ 3.06 µg/mL).

In the case of `CC1(C)C2CCC1(C)C(NC(=S)Nc1ccc(F)cc1)C2` [Compound D-3f, D-1-(4-fluorophenyl)-3-(1,7,7-trimethylbicyclo[2.2.1]heptan-2-yl)thiourea], the IC50 on human sEH came out at 38.3 nM. In addition, the Solubility in data set [1] was determined as 15 ± 5 µM (≈ 4.6 µg/mL).

Regarding `CC1(C)C2CCC1(C)C(NC(=O)Nc1ccc(F)cc1)C2` [Compound D-3b, D-1-(4-fluorophenyl)-3-(1,7,7-trimethylbicyclo[2.2.1]heptan-2-yl)urea], the 50% inhibitory concentration (IC50) at human sEH was determined as 8.2 nM. The Solubility in data set [1] stood at 65 ± 15 µM (≈ 18.9 µg/mL).
